Test results as given in publication PMC6405842, “Identification of a novel scaffold for a small molecule GPR139 receptor agonist” (Scientific Reports, 2019).

Key:
[1] = molecular target: T1, GPR139 (Homo sapiens, UniProt Q6DWJ6); assay: Fluo-4 calcium mobilization assay, agonist mode, concentration-response curves in CHO-GPR139 cells; format: cell-based
T1 construct: host or cells: CHO-k1
T1 sequence (Q6DWJ6 1-353): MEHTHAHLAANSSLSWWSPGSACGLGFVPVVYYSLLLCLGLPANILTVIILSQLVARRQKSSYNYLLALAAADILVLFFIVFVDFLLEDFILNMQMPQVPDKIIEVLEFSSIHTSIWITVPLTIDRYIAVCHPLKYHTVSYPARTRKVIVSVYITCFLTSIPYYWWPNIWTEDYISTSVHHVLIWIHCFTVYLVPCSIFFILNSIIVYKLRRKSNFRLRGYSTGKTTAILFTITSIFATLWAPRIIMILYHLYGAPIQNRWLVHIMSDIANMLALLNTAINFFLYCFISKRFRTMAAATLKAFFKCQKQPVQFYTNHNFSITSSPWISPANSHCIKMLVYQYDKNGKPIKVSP
Method: All compounds were tested on a CHO-k1 cell line stably expressing GPR139 (CHO-GPR139)[11] kindly provided by H. Lundbeck A/S, Denmark. GPR139-specific responses were assessed using a CHO-k1 cell line stably expressing the muscarinic acetylcholine receptor M1 (CHO-M1) (The Missouri S&T cDNA Resource Center, # CEM100TN00). The CHO-GPR139 cells were grown in Dulbecco’s modified Eagle’s medium (DMEM) F12-Kaighn’s (ThermoFisher Scientific # 21127) supplemented with 10% dialyzed fetal bovine serum (United States origin; ThermoFisher Scientific # 26400), 1% GlutaMAX-I (100X) (ThermoFisher Scientific # 35050061), and 100 units/mL penicillin and 100 µg/mL streptomycin (ThermoFisher Scientific # 15140122) and 1 mg/mL geneticin (ThermoFisher Scientific # 11811031). The CHO-M1 cells were grown in Ham’s F12 (ThermoFisher Scientific # 21765) supplemented with 10% fetal bovine serum (South American origin; ThermoFisher Scientific # 10270) + 100 units/mL penicillin and streptomycin and 0.25 mg/mL geneticin.
The Fluo-4 Ca^2+-assay was performed as described previously, with minor modifications. After 1 hour incubation with the Fluo-4 dye, the CHO-GPR139 cells were washed with 100 μL HEPES buffer (Hank’s Balanced Salt Solution (HBBS, ThermoFisher Scientific # 14175053) supplemented with 20 mM HEPES, 1 mM MgCl2, 1 mM CaCl2, pH = 7.4) and the compound library was then added in concentrations between 25–63 μM dissolved in HEPES buffer (supplemented with 2.5 mM probenecid and 1% DMSO) and pre-incubated for 10 min at 37 °C. 33 μL of 3.2 μM 1a were added automatically after baseline measurements. […] This set-up allowed us to identify both antagonists and agonists (Fig. 2).
Each compound, for which a concentration response curve was made, was tested at least three times in duplicate measurements. After the incubation with the Fluo-4 dye and a wash, 100 μL HEPES buffer (supplemented with 2.5 mM probenecid) was added to each well and incubated for 10 minutes at 37 °C before recording. 33 μL of compounds (4× concentrated) were added automatically after baseline measurements.
(§1) The Ca^2+ and ERK responses were normalized as indicated and the concentration response curves were fitted by Prism 6 software (GraphPad) using nonlinear regression in a sigmoidal model with variable slope, as has been previously described.

[2] = molecular target: T1, GPR139; assay: Phospho-ERK1/2 HTRF assay in CHO-GPR139 cells; format: cell-based; conditions: ERK phosphorylation; for EC50 / pEC50 ± SEM: CHO-GPR139 cells; for Emax / Emax ± SEM: expressed relative to FBS positive control
Method: All compounds were tested on a CHO-k1 cell line stably expressing GPR139 (CHO-GPR139)[11] kindly provided by H. Lundbeck A/S, Denmark. GPR139-specific responses were assessed using a CHO-k1 cell line stably expressing the muscarinic acetylcholine receptor M1 (CHO-M1) (The Missouri S&T cDNA Resource Center, # CEM100TN00).
Phospho-ERK measurements were made using the Advanced Phospho-ERK1/2 (Thr202/Tyr204) HTRF kit by Cisbio (Codolet, France). Approximately 24 hours prior to the experiment, CHO-GPR139 cells were plated at 50,000 cells/well onto a 96-well plate and cultured as detailed above. Approximately 6 hours later, the media was aspirated, replaced with 50 μL serum-free media, and the cells were allowed to serum starve overnight. The day of the experiment, serial dilutions of the test compounds and controls were made in serum-free media at 2x final concentration. 50 μL of test compounds were added directly to the appropriate wells for 5 minute stimulation at 37 °C. At this point, the media and compounds were rapidly aspirated, lysis/blocking buffer was added, and cells were lysed on a shaker for 30 minutes at room temperature.
as §1

[3] = CHO-GPR139 cells, at least three independent concentration-response curves in duplicate, read-out: EC50
[4] = CHO-GPR139 cells, normalized to buffer (0%) and 8 μM 1a (100%)
[5] = calcium mobilization assay, GPR139, values printed with a minus sign, read-out: pEC50 ± SEM (converted)
[6] = calcium mobilization assay, efficacy normalized to compound 1a
[7] = 5 minute stimulation, read-out: EC50
[8] = read-out: pEC50 ± SEM (converted)
[9] = Table S1, 11 primary screen hits
[10] = Table S1, 11 primary screen hits, read-out: EC50
[11] = Table S1, normalized to compound 1a

| Structure (SMILES) | pEC50 ± S.E.M. ([1]; CHO-GPR139 cells) | EC50 [1, 3] | Emax ± S.E.M. [1, 4] | also measured |
| --- | --- | --- | --- | --- |
| COc1ccc(C(=O)CN2C(=O)NC(C)(c3ccc4c(c3)OCO4)C2=O)cc1OC (centres unmarked) [AC138] | 6.10 ± 0.14 | 790 nM | 100 ± 5% | – |
| CC1(c2ccc3c(c2)OCCO3)NC(=O)N(CC(=O)c2ccc[nH]2)C1=O (centres unmarked) [AC191] | 6.46 ± 0.16 | 350 nM | 99 ± 2% | – |
| Cc1ccc(C(=O)CN2C(=O)NC(C)(c3ccc4c(c3)OCO4)C2=O)cc1 (centres unmarked) [AC136] | 6.01 ± 0.03 | 990 nM | 67 ± 6% | – |
| C=C(C)CN(CC)C(=O)CN1C(=O)NC(C)(c2cccc3ccccc23)C1=O (centres unmarked) [AC230] | 6.31 ± 0.27 | 490 nM | 89 ± 1% | – |
| O=C(O)C1CC=CCC1c1nnc(CSc2ccc(Cl)cc2)o1 (centres unmarked) [AC004] | – | – | – | EC50 [1, 5]: 219 nM; Emax [1, 6]: 116% |
| N[C@@H](Cc1c[nH]c2ccccc12)C(=O)O [L-tryptophan, reference compound] | – | – | – | EC50 [2, 7]: 770000 nM; EC50 [2, 8]: 759000 nM; Emax [2]: 70.6 ± 8.59% |
| C=CCN(CC=C)C(=O)CN1C(=O)NC(C)(c2ccc3c(c2)OCCO3)C1=O (centres unmarked) [AC194] | 6.68 ± 0.02 | 210 nM | 106 ± 4% | pEC50 ± SEM [2]: 7.41 ± 0.30; EC50 [2, 7]: 39 nM; Emax ± SEM [2]: 62.32 ± 6.66 |
| CC1(C2CC2)NC(=O)N(CC(=O)N2CCCSc3ccccc32)C1=O (centres unmarked) [AC11] | – | – | – | pEC50 ± S.E.M. [1, 9]: 5.15 ± 0.12; EC50 [1, 10]: 7070 nM; Emax ± S.E.M. [1, 11]: 33 ± 3% |
| CC(C)OCCCNC(=O)NC(C)c1cccc(Cl)c1 (centres unmarked) [AC76] | 6.03 ± 0.10 | 940 nM | 97 ± 4% | – |
| C=CCN(CC=C)C(=O)CN1C(=O)NC(C)(c2ccc3c(c2)OCO3)C1=O (centres unmarked) [AC7] | 6.41 ± 0.12 | 390 nM | 112 ± 5% | – |
| CN(CC(=O)NC1CC1)C(=O)COc1ccc2oc3c(c2c1)CCCC3 [AC16] | – | – | – | pEC50 ± S.E.M. [1, 9]: 4.92 ± 0.12; EC50 [1, 10]: 11900 nM; Emax ± S.E.M. [1, 11]: 44 ± 4% |
| Cc1ccc(CNC(=O)NCC2CN(CC(C)C)CCO2)cc1 (centres unmarked) [AC13] | – | – | – | pEC50 ± S.E.M. [1, 9]: 4.68 ± 0.13; EC50 [1, 10]: 20700 nM; Emax ± S.E.M. [1, 11]: 90 ± 5% |
| CC1(c2ccc3c(c2)OCO3)NC(=O)N(CC(=O)N2CCc3ccccc32)C1=O (centres unmarked) [AC197] | 6.71 ± 0.14 | 190 nM | 103 ± 1% | pEC50 ± SEM [2]: 7.03 ± 0.14; Emax ± SEM [2]: 78.70 ± 4.05 |
| CC1(c2cccc3ccccc23)NC(=O)N(CC(=O)NCCc2ccccc2)C1=O (centres unmarked) [AC243] | 6.45 ± 0.11 | 350 nM | 86 ± 5% | – |
| O=C(NCCCc1nc2ccccc2[nH]1)NC1CCSc2ccc(F)cc21 (centres unmarked) [AC14] | 6.11 ± 0.12 | 780 nM | 93 ± 3% | – |
| CC(C)(C)c1cc(NC(=O)Nc2ccc(-c3cn4c(n3)sc3cc(OCCN5CCOCC5)ccc34)cc2)no1 [AC220] | – | 490 nM | – | Emax [1, 4]: 103 ± 3% |
| CCc1cccc2c(C(=O)CN3C(=O)NC(C)(c4ccc5c(c4)OCCO5)C3=O)c[nH]c12 (centres unmarked) [AC210] | 6.20 ± 0.24 | 630 nM | 115 ± 8% | – |
| COc1ccc(OC)c(C(=O)CN2C(=O)NC(C)(c3ccc4c(c3)OCO4)C2=O)c1 (centres unmarked) [AC137] | 6.27 ± 0.08 | 540 nM | 92 ± 3% | – |
| CC1(c2ccc3c(c2)OCO3)NC(=O)N(CC(=O)N2CCCc3ccccc32)C1=O (centres unmarked) [AC202] | 6.47 ± 0.09 | 340 nM | 102 ± 2% | – |

| Structure (SMILES) | pEC50 ± S.E.M. ([1]; CHO-GPR139 cells) | EC50 [1, 3] | Emax ± S.E.M. [1, 4] | also measured |
| --- | --- | --- | --- | --- |
| CC1(c2cccc3ccccc23)NC(=O)N(CC(=O)c2cc3ccccc3o2)C1=O (centres unmarked) [AC233] | 6.47 ± 0.19 | 340 nM | 80 ± 6% | – |
| CC1(c2ccc3c(c2)OCCO3)NC(=O)N(CC(=O)c2ccc3c(c2)OCO3)C1=O (centres unmarked) [AC205] | 6.36 ± 0.14 | 440 nM | 100 ± 3% | – |
| CC1(c2ccc3c(c2)OCO3)NC(=O)N(CC(=O)N2CCCCC2)C1=O (centres unmarked) [AC192] | 6.12 ± 0.13 | 750 nM | 95 ± 1% | – |
| CC(C)OCCCNC(=O)NC(C)c1ccc2c(c1)OCO2 (centres unmarked) [AC12] | – | – | – | pEC50 ± S.E.M. [1, 9]: 5.43 ± 0.19; EC50 [1, 10]: 3740 nM; Emax ± S.E.M. [1, 11]: 116 ± 8% |
| O=C(NCCc1cc(Cl)c2c(c1)OCCO2)NCc1cccnc1-n1ccnc1 [AC37] | – | – | – | pEC50 ± S.E.M. [1, 9]: 5.55 ± 0.19; EC50 [1, 10]: 2800 nM; Emax ± S.E.M. [1, 11]: 105 ± 8% |
| CC(=O)Oc1cccc2c1C(=O)c1c(OC(C)=O)cc(C(=O)O)cc1C2=O [AC201] | – | – | – | EC50 ([1]; calcium mobilization assay, GPR139, read-out: EC50): 1800 nM; EC50 [1, 5]: 1780 nM; Emax [1, 6]: 96% |
| CC(NC(=O)NCC(=O)NCC1CC1)c1ccc(F)cc1Cl (centres unmarked) [AC178] | 6.55 ± 0.07 | 280 nM | 97 ± 5% | – |
| CC(C)OCCCNC(=O)NC(C)c1ccccc1Cl (centres unmarked) [AC77] | 6.22 ± 0.17 | 600 nM | 102 ± 4% | – |
| CC(C)COCCCNC(=O)NC(C)c1ccc(Br)cc1 (centres unmarked) [AC82] | 6.54 ± 0.08 | 290 nM | 102 ± 6% | – |
| CC1(c2cccc3ccccc23)NC(=O)N(CC(=O)N2CCCCCC2)C1=O (centres unmarked) [AC187] | 6.13 ± 0.22 | 740 nM | 102 ± 5% | – |
| CC1(c2cccc3ccccc23)NC(=O)N(CC(=O)c2ccc3c(c2)OCO3)C1=O (centres unmarked) [AC234] | 6.42 ± 0.07 | 380 nM | 99 ± 3% | – |
| Cc1ccc(C2(C)NC(=O)N(Cc3cn4cc(Cl)ccc4n3)C2=O)cc1 (centres unmarked) [AC10] | – | – | – | pEC50 ± S.E.M. [1, 9]: 5.55 ± 0.03; EC50 [1, 10]: 2830 nM; Emax ± S.E.M. [1, 11]: 89 ± 5% |
| C[C@H](NC(=O)CNC(=O)c1cccc(Cl)c1)c1ccccc1 [7c, reference compound] | – | – | – | EC50 [2, 8]: 12.9 nM; Emax [2]: 89.1 ± 4.38% |
| CC1CC(C)CN(C(=O)CN2C(=O)NC(C)(c3cccc4ccccc34)C2=O)C1 (centres unmarked) [AC186] | 6.39 ± 0.12 | 410 nM | 89 ± 5% | – |
| CC1(c2ccc3c(c2)OCCO3)NC(=O)N(CC(=O)N2CCc3ccccc3C2)C1=O (centres unmarked) [AC209] | 6.54 ± 0.17 | 290 nM | 107 ± 3% | – |
| CC1(c2cccc3ccccc23)NC(=O)N(CC(=O)c2ccc(CCNS(C)(=O)=O)s2)C1=O (centres unmarked) [AC241] | 6.38 ± 0.06 | 420 nM | 88 ± 3% | – |
| C=CCN(CC=C)C(=O)CN1C(=O)NC(C)(c2cccc3ccccc23)C1=O (centres unmarked) [AC229] | 6.36 ± 0.16 | 430 nM | 95 ± 2% | – |
| CC1(c2ccc3c(c2)OCCO3)NC(=O)N(CC(=O)c2c[nH]c3ccccc23)C1=O (centres unmarked) [AC200] | 6.34 ± 0.11 | 460 nM | 111 ± 5% | – |
